Assay results taken from patent US20170234860A1, “SEQUENCE AND CHIRAL SELECTIVITY OF DNA-DRUG INTERACTIONS REVEALED BY FORCE SPECTROSCOPY” (UNIVERSITY OF HOUSTON SYSTEM, priority 2014, published 2017).
Blank lines part the entries; values can stand above or below the compound they belong to.

Legend:
[1] = system: DNA duplex 5′-CCC GGG TTT CCC-3′ / 3′-GGG CCC AAT GGG-5′ containing a T-T pair; assay: FIRMS binding force of the T-Hg-T system (DNA duplex with T-T pair)
Description: (§1) Some embodiments of the method of using a differential binding force to quantify the efficiency of a drug molecule to a receptor comprises a process wherein one strand of the DNA duplex is immobilized on a surface, while the other is labeled with a magnetic particle. The binding forces of the DNA duplex are measured in the absence and presence of the drug molecule, denoted as F1 and F2, respectively. The differential binding force, F2-F1, characterizes the influence of the drug-DNA binding on the stability of the DNA. The binding forces are obtained using the FIRMS technique, depicted in FIG. 1.
(§2) Magnetic particles M280 were used to label one strand of the DNA duplexes as previously characterized.^16] After initial magnetization by a permanent magnet, the magnetic signal of the particles were detected by an atomic magnetometer, with a sensitivity of 200 fT/(Hz)^1/2. Sample wells (4×2×1 mm^3) with a biotin-coated bottom surface were used to immobilize the other strand of the DNA duplexes. Mechanical forces were applied using a centrifuge (Eppendorf 5417R).
The sample well, with dimensions of 4×2×1 mm^3 (L×W×D), was coated with biotin on the bottom surface. An aqueous solution of 0.625 mg/mL streptavidin was loaded into the sample well and incubated for 1 hr. Then the sample well was rinsed three times with a buffer solution as described below. […]

[2] = system: DNA1 (5′-CCC AAT CGA CCC-3′ with complementary strand 5′-GGG TCG ATT GGG-3′); assay: FIRMS binding force of drug with DNA1
Description: as §1
as §2, with “Mechanical forces were applied using a centrifuge (Eppendorf 5417R).” left out
(§3) DNA Intercalation is widely considered as its binding mode, although minor groove binding has also been discussed,^[24] however, the specificity has previously not been quantified by binding strength. […] As a control experiment the differential binding force of daunomycin with a different DNA duplex, DNA2, with sequence 5′-CCC GGG TTT CCC-3′ and its complementary strand was measured.

[3] = system: DNA2 (5′-CCC GGG TTT CCC-3′ and its complementary strand); assay: FIRMS binding force of drug with DNA2
Description: as §1
as §2, with “Mechanical forces were applied using a centrifuge (Eppendorf 5417R).” left out
as §3

[4] = system: DNA duplex 5′-CGCGAAAAACGCG-3′; assay: FIRMS binding force of groove-binding drugs with DNA; conditions: for binding force of DNA with drug: DNA alone 59 pN
Description: as §1
The method of differential binding force can also be used to quantify a different binding mode of DNA-drug interactions. We chose two groove-binding drugs, netropsin and berenil. The groove-binding interaction is different from the intercalation interaction of daunomycin and THP. Shown in FIG. 6 are the binding forces of DNA alone, DNA with netropsin, and DNA with berenil, with values of 59, 63, and 73 pN, respectively. The DNA sequence was 5′-CGCGAAAAACGCG-3′ (SEQ. 5). The binding forces yield differential binding force of 4 pN for netropsin and 14 pN for berenil.

SMILES: [Hg+2] [Hg]
- binding force of the DNA duplex upon binding ([1]; DNA alone 40 pN, HEPES buffer pH 7.6): 54 pN
- differential binding force (F2-F1) ([1]; increase over DNA alone): 14 pN

SMILES: COc1cccc2c1C(=O)c1c(O)c3c(c(O)c1C2=O)C[C@@](O)(C(C)=O)C[C@@H]3O[C@H]1C[C@H](N)[C@H](O)[C@H](C)O1 [daunomycin]
- differential binding force (F2-F1) [2]: 12 pN
- binding force of DNA1 with drug ([2]; DNA alone 45 pN (daunomycin, TE buffer) or 44 pN (THP, BPES buffer)): 57 pN
- differential binding force (F2-F1) [3]: no significant force difference
- binding force of DNA2 with drug ([3]; DNA alone 51 pN): 52 pN

SMILES: Cn1cc(NC(=O)c2cc(NC(=O)CN=C(N)N)cn2C)cc1C(=O)NCCC(=N)N [netropsin]
- differential binding force (F2-F1) [4]: 4 pN
- binding force of DNA with drug [4]: 63 pN

- differential binding force (F2-F1) [4]: 14 pN
- binding force of DNA with drug [4]: 73 pN
SMILES: CC(=O)NCC(=O)O.CC(=O)NCC(=O)O.N=C(N)c1ccc(N=NNc2ccc(C(=N)N)cc2)cc1 [berenil]
